The supplement of paper PMC12076712

What was measured:
Experiment in all cases: pIC50, kinobeads binding competition
[1] = target: T1, UniProt O00444
T1 sequence (whole entry): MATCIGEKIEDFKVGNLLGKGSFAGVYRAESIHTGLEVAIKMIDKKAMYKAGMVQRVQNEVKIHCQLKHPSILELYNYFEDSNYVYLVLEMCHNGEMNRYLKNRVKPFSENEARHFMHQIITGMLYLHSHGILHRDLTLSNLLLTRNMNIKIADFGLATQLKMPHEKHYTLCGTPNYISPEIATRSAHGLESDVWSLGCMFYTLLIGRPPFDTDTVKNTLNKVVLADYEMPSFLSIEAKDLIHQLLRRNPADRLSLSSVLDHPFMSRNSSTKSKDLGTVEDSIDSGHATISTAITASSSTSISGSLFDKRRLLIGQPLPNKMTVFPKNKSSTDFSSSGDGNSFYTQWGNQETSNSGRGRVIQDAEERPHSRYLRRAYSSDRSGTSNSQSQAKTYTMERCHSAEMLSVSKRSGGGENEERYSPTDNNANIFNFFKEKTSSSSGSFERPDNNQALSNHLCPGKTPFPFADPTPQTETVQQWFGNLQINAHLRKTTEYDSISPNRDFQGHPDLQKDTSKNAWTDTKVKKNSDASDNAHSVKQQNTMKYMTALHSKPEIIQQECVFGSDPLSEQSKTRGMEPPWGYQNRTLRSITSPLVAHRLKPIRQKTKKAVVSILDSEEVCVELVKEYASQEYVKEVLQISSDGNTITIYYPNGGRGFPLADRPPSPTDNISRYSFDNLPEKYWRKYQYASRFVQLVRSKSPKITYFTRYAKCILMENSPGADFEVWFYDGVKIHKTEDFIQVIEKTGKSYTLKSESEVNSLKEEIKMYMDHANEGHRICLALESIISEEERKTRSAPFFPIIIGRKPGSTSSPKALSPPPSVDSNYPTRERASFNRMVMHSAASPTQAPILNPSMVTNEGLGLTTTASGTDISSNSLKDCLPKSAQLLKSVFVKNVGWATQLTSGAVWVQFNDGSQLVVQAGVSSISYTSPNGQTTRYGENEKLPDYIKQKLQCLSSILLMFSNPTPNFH
How it was run: (§1)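 Live Jurkat cells were treated with nine compound concentrations (top 30 μM, 1:4 steps) or DMSO for 60 min at 37 °C before lysis. Alternatively, Jurkat lysate or a 1:1:1:1 HEK293/K-562/HepG2/placenta lysate mix was incubated with nine concentrations (top 30 μM, 1:5 steps) for 60 min at 4 °C. Kinobeads-bound proteins were digested and quantified by TMT10 LC-MS/MS. pIC50 came from logistic dose-response fits (R drc package) of fold changes versus DMSO, in biological duplicates.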

[2] = target: UniProt P17612
How it was run: as §1

[3] = target: TESK2 (UniProt Q96S53)
Sequence of TESK2 (Q96S53 whole entry, looked up): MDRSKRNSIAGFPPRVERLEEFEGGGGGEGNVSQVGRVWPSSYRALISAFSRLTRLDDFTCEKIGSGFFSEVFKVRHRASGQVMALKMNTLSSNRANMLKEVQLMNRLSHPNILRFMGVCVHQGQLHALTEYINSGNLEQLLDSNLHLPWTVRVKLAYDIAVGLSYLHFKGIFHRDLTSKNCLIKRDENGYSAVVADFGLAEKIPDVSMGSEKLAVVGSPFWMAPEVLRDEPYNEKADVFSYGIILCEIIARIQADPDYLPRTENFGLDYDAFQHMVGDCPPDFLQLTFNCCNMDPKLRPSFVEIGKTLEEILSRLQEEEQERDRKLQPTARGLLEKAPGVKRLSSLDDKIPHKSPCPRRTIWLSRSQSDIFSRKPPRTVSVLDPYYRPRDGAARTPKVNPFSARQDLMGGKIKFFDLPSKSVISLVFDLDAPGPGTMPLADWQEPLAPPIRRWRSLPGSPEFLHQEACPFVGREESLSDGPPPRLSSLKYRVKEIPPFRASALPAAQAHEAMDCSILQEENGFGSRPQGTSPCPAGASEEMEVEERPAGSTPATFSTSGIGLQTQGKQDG
How it was run: as §1

[4] = target: T2, BMPR2 (UniProt Q13873)
T2 sequence (whole entry): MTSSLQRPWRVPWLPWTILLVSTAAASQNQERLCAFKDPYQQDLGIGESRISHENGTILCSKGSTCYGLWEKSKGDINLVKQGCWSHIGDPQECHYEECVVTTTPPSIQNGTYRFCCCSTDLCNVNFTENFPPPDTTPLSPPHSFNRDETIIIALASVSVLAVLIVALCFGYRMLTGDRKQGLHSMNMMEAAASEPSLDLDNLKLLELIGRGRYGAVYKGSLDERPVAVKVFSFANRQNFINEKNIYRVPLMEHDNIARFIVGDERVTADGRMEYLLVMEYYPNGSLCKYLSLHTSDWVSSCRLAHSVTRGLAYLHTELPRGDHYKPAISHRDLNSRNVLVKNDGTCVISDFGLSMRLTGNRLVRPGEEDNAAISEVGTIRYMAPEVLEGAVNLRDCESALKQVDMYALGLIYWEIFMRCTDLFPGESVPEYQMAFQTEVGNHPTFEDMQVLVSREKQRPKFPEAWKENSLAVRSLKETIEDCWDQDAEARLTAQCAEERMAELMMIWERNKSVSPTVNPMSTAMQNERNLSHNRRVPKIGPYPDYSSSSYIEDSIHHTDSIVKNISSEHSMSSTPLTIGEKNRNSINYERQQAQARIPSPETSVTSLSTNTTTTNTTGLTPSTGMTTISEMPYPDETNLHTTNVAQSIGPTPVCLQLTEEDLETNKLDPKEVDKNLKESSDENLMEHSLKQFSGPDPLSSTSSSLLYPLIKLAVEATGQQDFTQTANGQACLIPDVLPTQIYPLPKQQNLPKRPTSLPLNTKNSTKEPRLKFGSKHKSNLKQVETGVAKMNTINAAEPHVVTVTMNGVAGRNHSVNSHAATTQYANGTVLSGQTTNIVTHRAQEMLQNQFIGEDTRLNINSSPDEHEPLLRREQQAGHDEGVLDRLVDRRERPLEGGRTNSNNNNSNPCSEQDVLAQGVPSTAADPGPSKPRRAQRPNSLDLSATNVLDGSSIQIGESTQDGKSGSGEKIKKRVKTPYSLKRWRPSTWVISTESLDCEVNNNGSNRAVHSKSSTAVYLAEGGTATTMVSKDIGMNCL
How it was run: as §1

[5] = target: T3, PIP4K2A (UniProt P48426)
T3 sequence (whole entry): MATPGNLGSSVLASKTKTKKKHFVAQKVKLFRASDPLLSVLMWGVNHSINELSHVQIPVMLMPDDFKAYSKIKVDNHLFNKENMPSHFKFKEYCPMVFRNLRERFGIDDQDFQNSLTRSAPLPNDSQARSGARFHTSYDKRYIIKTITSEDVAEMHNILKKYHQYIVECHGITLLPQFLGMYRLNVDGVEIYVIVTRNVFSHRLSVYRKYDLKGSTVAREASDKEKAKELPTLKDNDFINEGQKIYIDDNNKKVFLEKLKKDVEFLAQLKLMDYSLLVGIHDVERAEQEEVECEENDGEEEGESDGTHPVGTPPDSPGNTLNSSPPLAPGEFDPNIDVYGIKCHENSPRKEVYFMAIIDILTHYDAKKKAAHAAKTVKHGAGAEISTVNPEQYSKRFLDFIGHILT
How it was run: as §1

| pIC50 ([1]; cell material: Lysate mix) | pIC50 ([2]; cell material: Lysate mix) | pIC50 ([3]; cell material: Lysate mix) | pIC50 ([4]; cell material: Lysate mix) | pIC50 ([5]; cell material: Lysate mix) | SMILES | pIC50 ([1]; cell material: Jurkat cells) | pIC50 ([1]; cell material: Jurkat lysate) | pIC50 ([2]; cell material: Jurkat cells) | pIC50 ([2]; cell material: Jurkat lysate) | pIC50 ([3]; cell material: Jurkat lysate) | pIC50 ([4]; cell material: Jurkat cells) | pIC50 ([4]; cell material: Jurkat lysate) | pIC50 ([5]; cell material: Jurkat cells) | pIC50 ([5]; cell material: Jurkat lysate) | pIC50 ([3]; cell material: Jurkat cells) |
| --- | --- | --- | --- | --- | --- | --- | --- | --- | --- | --- | --- | --- | --- | --- | --- |
| < 4.52 | < 4.52 | < 4.52 | < 4.52 | < 4.52 | Cc1cc(Nc2cc(C(=O)NCCNC(=O)OC3CC/C=C/CCC3)nc(N3CCN(Cc4ccc(S(=O)(=O)F)cc4)CC3)n2)n[nH]1 (centres undefined) |  |  |  |  |  |  |  |  |  |  |
| 5.39 | < 4.52 | < 4.52 | < 4.52 | < 4.52 | C#CCNC(=O)c1cc(Nc2cc(C)[nH]n2)nc(N2CCN(Cc3ccc(S(=O)(=O)F)cc3)CC2)n1 |  |  |  |  |  |  |  |  |  |  |
| < 4.52 | < 4.52 | < 4.52 | < 4.52 | < 4.52 | O=C(NCCNC(=O)c1cc(Nc2cc(C3CC3)[nH]n2)nc(N2CCN(Cc3ccc(S(=O)(=O)F)cc3)CC2)n1)OC1CC/C=C/CCC1 (centres undefined) | 5.5 | < 4.52 | < 4.52 | < 4.52 | < 4.52 | < 4.52 | < 4.52 | < 4.52 | < 4.52 |  |
| 5.97 | < 4.52 | < 4.52 | < 4.52 | < 4.52 | CCNC(=O)c1cc(Nc2cc(C)[nH]n2)nc(N2CCN(Cc3ccc(S(=O)(=O)F)cc3)CC2)n1 |  |  |  |  |  |  |  |  |  |  |
| 5.81 | < 4.52 | < 4.52 | < 4.52 | < 4.52 | CCNC(=O)c1cc(Nc2cc(C3CC3)[nH]n2)nc(N2CCN(Cc3ccc(S(=O)(=O)F)cc3)CC2)n1 |  |  |  |  |  |  |  |  |  |  |

| SMILES | pIC50 ([1]; cell material: Lysate mix) | pIC50 ([2]; cell material: Lysate mix) | pIC50 ([3]; cell material: Lysate mix) | pIC50 ([4]; cell material: Lysate mix) | pIC50 ([5]; cell material: Lysate mix) | pIC50 ([1]; cell material: Jurkat cells) | pIC50 ([1]; cell material: Jurkat lysate) | pIC50 ([2]; cell material: Jurkat cells) | pIC50 ([2]; cell material: Jurkat lysate) | pIC50 ([3]; cell material: Jurkat lysate) | pIC50 ([4]; cell material: Jurkat cells) | pIC50 ([4]; cell material: Jurkat lysate) | pIC50 ([5]; cell material: Jurkat cells) | pIC50 ([5]; cell material: Jurkat lysate) | pIC50 ([3]; cell material: Jurkat cells) |
| --- | --- | --- | --- | --- | --- | --- | --- | --- | --- | --- | --- | --- | --- | --- | --- |
| C#CCNC(=O)c1cc(Nc2cc(C3CC3)[nH]n2)nc(N2CCN(Cc3ccc(S(=O)(=O)F)cc3)CC2)n1 | 6.02 | < 4.52 | < 4.52 | < 4.52 | < 4.52 | 5.96 | 5.44 | < 4.52 | < 4.52 | < 4.52 | 5.72 | < 4.52 | 4.96 | < 4.52 | < 4.52 |
